Assay results published in publication PMC10056643, “New Bioactive Peptides from the Mediterranean Seagrass Posidonia oceanica (L.) Delile and Their Impact on Antimicrobial Activity and Apoptosis of Human Cancer Cells” (International Journal of Molecular Sciences, 2023).
Where two headings read alike, the source gives them in different places. Where no end group is shown, it is not given here.

Key:
HepG2 cells = assay type: cell-based, human; conditions: for Activity on HepG2 cells (in words): HepG2, discussion statement; for IC50 (cell viability): 24 h
Procedure: HepG2 human hepatic cancer cells (taken from laboratory stocks) were routinely grown in high glucose–DMEM medium with the addition of 10% fetal calf serum (Life Technologies, Carlsbad, CA, USA) and antibiotics (100 U/mL penicillin and 100 μg/mL streptomycin; Life Technologies), at 37 °C in a 5% CO2 atmosphere.
For IC50 determination, cells undergoing exponential growth were seeded at a concentration of 5500/well in 96-well plates, allowed to adhere overnight, and then grown in control conditions or exposed to different concentrations of natural and synthetic peptides for 24 h. The number of viable cells was determined through the trypan blue exclusion test. The cell viability ratio in each experimental condition was determined as the ratio between unstained treated cells and controls, and the half maximal inhibitory concentrations (IC50) for peptides #7, #3d, and #7d were evaluated using the CompuSyn software.

E. faecalis ATCC 29212 = assay type: cell-based, Enterococcus faecalis
From the text: (§1) Four bacterial strains and one fungal strain were employed in this study: S. aureus ATCC 25923, P. aeruginosa ATCC 15442, E. coli ATCC 25922, E. faecalis ATCC 29212, and C. albicans ATCC 10231. The media used for microbiological assays were Tryptic Soy Broth (TSB, Sigma-Aldrich, Merck-Life Sciences S.r.l., Milan, Italy), Tryptic Soy Agar (TSA), Mueller Hinton II (Sigma-Aldrich, Merck-Life Sciences S.r.l., Milan, Italy), and Sabouraud medium for the yeast strain.
(§2) Polypeptide-enriched extracts derived from green leaves and rhizomes of P. oceanica were lyophilized and resuspended in ultrapure water in order to obtain protein concentrations of 30 μg/mL and 26 μg/mL, respectively. The MIC values of the extracts were assessed through a previously described micro-method based on serial dilution (1:2) of the extracts, using Mueller Hinton II (MH II) and Sabouraud (for C. albicans) media in 96-well microplates and starting from 50% v/v to 1.5% v/v for a final volume equal to 100 μL. A microbial suspension of 10 μL (5 × 10^6 CFU/mL) derived from a bacterial culture grown at 37 °C for 24 h on Tryptic Soy Agar (TSA) in 5 mL of NaCl 0.9%, whose turbidity was similar to the 0.5 McFarland standard, was added to a 96-well plate followed by incubation at 37 °C for 24 h. […] In addition, a positive growth control (broth with bacterial inoculum to compare the growth of the cells with samples) and a sample control (extract solution without bacterial inoculum to verify the absorbance of the samples at various tested concentrations) were also included.
(§3) The same procedure and media were also used to evaluate the antimicrobial activity of synthetic peptides #2, #3, #5, and #7, as well as of their derivatives. In particular, the synthetic peptides and their derivatives were dissolved in ultrapure water with the goal of achieving a stock solution of 5 mg/mL. Work solutions of 250 μg/mL of each synthetic peptides and derivatives were prepared in MH II and Sabouraud, being tested in 96-well microplates after serial dilution (1:2). Each assay was performed in triplicate.

P. aeruginosa ATCC 15442 [1] = assay type: cell-based, Pseudomonas aeruginosa
From the text: as §1, §2, §3

S. aureus ATCC 25923 = assay type: cell-based, Staphylococcus aureus
From the text: as §1, §2, §3

E. coli ATCC 25922 = assay type: cell-based, Escherichia coli
From the text: as §1, §2, §3

C. albicans ATCC 10231 = assay type: cell-based, Candida albicans
From the text: as §1, §2, §3

P. aeruginosa ATCC 15442 [2] = assay type: cell-based, Pseudomonas aeruginosa; conditions: crystal violet
Procedure: Sub-MIC concentrations of natural extracts and synthetic peptides were tested to evaluate their interference with the growth as a sessile community of S. aureus ATCC 25923, P. aeruginosa ATCC 15442 and C. albicans ATCC 10231, as previously reported. Bacterial strains or fungal strains were incubated in test tubes containing TSB or Sabouraud (5 mL) and 2% v/v glucose at 37 °C for 24 h. Then, a 2.5 μL microbial suspension was added to each well, containing 200 μL of TSB or Sabouraud broth with 2% w/v glucose.. Aliquots of sub-MIC concentrations of natural extracts of P. oceanica or of chemically synthesized peptides were directly added to the wells, and the plates were incubated at 37 °C for 24 h. After biofilm formation, the wells were washed twice with sterile NaCl 0.9% and stained with 200 μL of 0.1% v/v crystal violet solution for 30 min at 37 °C [70]. Excess solution was discharged, and the plates were washed twice using tap water. Lastly, each stained well was processed by adding 200 μL of ethanol to solubilize the dye. The OD was read at a wavelength of 600 nm using a microplate reader (Glomax®-Multi Detection System, Promega s.r.l., Milan, Italy). […] The percentage of biofilm inhibition formation was determined through the following formula: % Inhibition = [(OD growth − OD sample)/OD growth control] × 100. […]

[3] = chemically synthesized peptide, maximum tested concentration 250 μg/mL, Mueller Hinton II, triplicate

Sequence	MIC (E. faecalis ATCC 29212; ATCC 29212, 24 h)	MIC (P. aeruginosa ATCC 15442 [1]; ATCC 15442, 24 h)	IC50 (cell viability) (HepG2 cells)	MIC (S. aureus ATCC 25923; ATCC 25923, 24 h)	MIC (E. coli ATCC 25922; ATCC 25922, 24 h)	MIC (C. albicans ATCC 10231; ATCC 10231, 24 h)	other results
EETFHGVL [Peptide #2, natural peptide EETFHGVL from green leaves extract, chemically synthesized]	–	–	–	–	–	–	Activity on HepG2 cells (in words) (HepG2 cells): lack of activity
GEFALCKATK [Peptide #7d]	> 250 µg/mL	> 250 µg/mL	0.108 µg/mL	> 250 µg/mL	> 250 µg/mL	> 250 µg/mL	–
GEFALCSAKT [Peptide #7]	–	–	0.329 µg/mL	–	–	–	–
IVAKVGSA [5d]	–	–	–	–	–	–	MIC (E. faecalis ATCC 29212; [3]): > 250 µg/mL; MIC (P. aeruginosa ATCC 15442 [1]; [3]): > 250 µg/mL; Percentage of inhibition of biofilm formation (P. aeruginosa ATCC 15442 [2]; maximum tested concentration 200 μg/mL): 57.2%; BIC50 (P. aeruginosa ATCC 15442 [2]; peptide, AAT Bioquest IC50 calculator): 70.7 µg/mL; MIC (S. aureus ATCC 25923; [3]): > 250 µg/mL; MIC (E. coli ATCC 25922; [3]): > 250 µg/mL; MIC (C. albicans ATCC 10231; chemically synthesized peptide, maximum tested concentration 250 μg/mL, Sabouraud, triplicate): > 250 µg/mL
IVASVGSA [Peptide #5, natural peptide IVASVGSA from rhizome extract, chemically synthesized]	–	–	–	–	–	–	Activity on HepG2 cells (in words) (HepG2 cells): inability of peptide #5 to exert any biological role
RKTFWGVL [Peptide #2d]	> 250 µg/mL	> 250 µg/mL	–	> 250 µg/mL	> 250 µg/mL	> 250 µg/mL	–
WVVRLNAPGKK [Peptide #3d]	> 250 µg/mL	> 250 µg/mL	0.41 µg/mL	> 250 µg/mL	> 250 µg/mL	> 250 µg/mL	–
